Measured values as given in patent US11858925B2, “GAS41 inhibitors and methods of use thereof” (The Regents of the University of Michigan, priority 2020, dated 2024).
Where two headings read alike, the source gives them in different places.

What was measured:
[1] = biological target: T1, His6-tagged full-length GAS41 (Homo sapiens, UniProt O95619); test: AlphaScreen competition assay with full-length GAS41 and biotin-H3K23crK27cr; format: binding
T1 construct: using His6-tagged full-length GAS41 and biotinylated-, di-crotonylated-H3 peptide
T1 sequence (O95619 whole entry): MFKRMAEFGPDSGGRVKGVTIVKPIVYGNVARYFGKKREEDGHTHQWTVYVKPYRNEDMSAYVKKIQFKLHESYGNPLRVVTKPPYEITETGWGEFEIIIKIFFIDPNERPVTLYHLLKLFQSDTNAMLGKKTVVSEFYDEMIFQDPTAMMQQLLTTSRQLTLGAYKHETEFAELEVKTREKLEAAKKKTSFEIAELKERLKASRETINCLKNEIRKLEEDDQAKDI
Experimental: An AlphaScreen competition assay was also developed using His6-tagged full-length GAS41 and biotinylated-, di-crotonylated-H3 peptide (biotin-H3K23crK27cr). For full-length protein competition experiments, 100 nM MOCR-his6-Gas41 protein was incubated with 100× competitor in 50 mM HEPES pH 7.5, 100 mM NaCl, 1 mM TCEP, 0.05% BSA, 0.01% Tween-20 for 1 hour at 1% DMSO in a 96-well ½-Area AlphaPlate. H3K23crK27cr-biotin was added to a final concentration of 25 nM and incubated for 1 hour. Nickel Chelate Acceptor AlphaScreen beads were added to a final concentration of 10 μg/mL and incubated for 1 hour. Streptavidin Donor AlphaScreen beads were added to a final concentration of 10 μg/mL and incubated for 2 hours. Alpha signal was measured on a Pherastar plate reader.

[2] = biological target: T2, 15N-labeled GAS41 YEATS domain (Homo sapiens, UniProt O95619); test: 1H-15N HSQC NMR binding to 15N-labeled GAS41 YEATS domain; conditions: 60 μM 15N-labeled GAS41 YEATS; 60 μM Compound 85 or 30 μM Compound 223
T2 construct: GAS41 YEATS domain were also compared by NMR
T2 sequence (O95619 15-158 limits assumed): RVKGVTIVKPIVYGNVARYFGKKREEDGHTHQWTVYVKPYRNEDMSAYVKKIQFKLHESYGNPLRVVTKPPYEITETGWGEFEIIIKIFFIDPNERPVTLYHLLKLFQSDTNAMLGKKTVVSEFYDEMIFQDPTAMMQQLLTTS
Experimental: FIGS. 2A-2C show data for activities of compounds disclosed herein. A) Results of a dimerization assay to determine bivalent inhibitor-induced dimerization of GAS41 YEATS domain, as described in Example 6. B) ^1H-^15N HSQC spectrum of 60 μM ^15N-labeled GAS41 YEATS domain (black) and in presence of 60 μM Compound 85 (red). C) ^1H-^15N HSQC spectrum of 60 μM ^15N-labeled GAS41 YEATS domain in presence of 30 μM Compound 223 (red).
(§1) The signal was further decreased at highest compound concentrations, and indicates saturation of YEATS domain via independent inhibitor molecules (Hook effect).

[3] = biological target: T3, GAS41-WT interaction with H3.3 (Homo sapiens, UniProt O95619); test: NanoBiT assay, LgBiT-GAS41-WT and SmBiT-H3.3 in HEK293T cells; format: cell-based; conditions: 24 h treatment, 293T cells, estimated, read-out: IC50, inhibition of the luminescence signal
T3 construct: expressed in transfected cells; host or cells: HEK293T
T3 sequence (O95619 whole entry): as the sequence (O95619 whole entry) above
Experimental: A NanoBiT assay (Promega Corporation, Madison, WI) was developed to detect inhibition of protein-protein interaction in HEK293T cells by compounds. GAS41-WT and GAS41-W93A mutant were cloned into pBiT1.1-C[TK/LgBiT] vector. SmBiT-H3.3 was purchased from Promega. HEK293T cells (4×10E5) were plated into 6-well plates (DMEM with 10% FBS) and incubated for 5 h. The LgBiT-GAS41 and SmBiT-H3.3 plasmids were co-transfected using FuGENE HD for 42 h. 5×10^4 cells were transferred into 96-well white plates (DMEM with 10% FBS and 1% Penicillin and Streptomycin) and treated with compounds for 24 h. After the Nano-Glo Live Cell Reagent was added to each well, the luminescence was measured immediately using PHERAstar FS instrument.
Introduction of a point mutation W93A in LgBit GAS41 abolishing histone recognition (Hsu 2018) largely diminished luminescence signal and validates the NanoBit assay.

H1299 cells = test: Growth inhibition of H1299 cells; format: cell-based; conditions: for GI50: Homo sapiens
Experimental: (§2) To investigate cellular activity of GAS41 inhibitors, H1299 cells were treated with monomeric Compound 88 and dimeric Compound 221 for 4 days. […] To determine whether growth inhibition is dependent on presence of GAS41 we developed A549 GAS41 knocked-out cells using the CRISPR/CAS9 system. We found GAS41-KO were viable but grew more slowly compare with parental A549 cells and had reduced growth by ˜70% at day 14 (FIG. 4B). […] Next, we evaluated the effect of Compound 221 on growth of two NSCLC cell lines H1299 and H1933 with GAS41 amplification. […] Such effect correlates closely with activity of Compound 221 in NanoBit assay (FIG. 3). To further validate on-target activity of Compound 221, we tested expression of GAS41 target genes in H1299 (Hsu 2018). […] Altogether, dimeric inhibitor Compound 221 reduces binding of GAS41 to acetylated H3.3 in cells and induces on-target growth inhibition in NSCLCs lines.

A549 cells = test: Growth inhibition of A549 cells; format: cell-based; conditions: Homo sapiens, 12 μM concentration
Experimental: as §2

A549 GAS41-KO cells = test: Growth of A549 GAS41 knocked-out cells; format: cell-based
Experimental: as §2

H1933 cells = test: Growth inhibition of H1933 cells; format: cell-based; conditions: 336 h, day 14
Experimental: as §2

GAS41 YEATS domain = biological target: T4, GAS41 YEATS domain (Homo sapiens, UniProt O95619); test: AlphaScreen dimerization assay with his6-Gas41(13-158) and avi-Gas41-YEATS; format: binding; conditions: titration of his6-Gas41(13-158) and avi-Gas41-YEATS; Hook effect at highest concentrations
T4 construct: 500 nM his6-Gas41(13-158) and 250 nM avi-Gas41-YEATS were incubated; His-tagged and biotin-labeled Avi-tagged GAS41 YEATS domain constructs
T4 sequence (O95619 13-158 limits assumed): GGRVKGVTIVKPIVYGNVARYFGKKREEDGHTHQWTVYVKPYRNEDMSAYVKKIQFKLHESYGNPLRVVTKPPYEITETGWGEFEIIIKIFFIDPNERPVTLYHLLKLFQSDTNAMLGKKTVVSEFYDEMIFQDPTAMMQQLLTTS
T4 sequence (O95619 15-158 limits assumed): as the sequence (O95619 15-158 limits assumed) above
Experimental: An AlphaScreen assay based on His-tagged and biotin-labeled Avi-tagged GAS41 YEATS domain constructs was developed. For dimerization experiments, 500 nM his6-Gas41(13-158) and 250 nM avi-Gas41-YEATS were incubated in 50 mM HEPES pH 7.5, 100 mM NaCl, 1 mM TCEP, 0.05% BSA, 0.01% Tween-20 in a 96-well ½-Area AlphaPlate incubated for 30 minutes. Compounds 221 and 223 were added to a final concentration of 250 nM at 1% DMSO. Nickel Chelate Acceptor AlphaScreen beads were added to a final concentration of 10 μg/mL and incubated for 1 hour. Streptavidin Donor AlphaScreen beads were added to a final concentration of 10 μg/mL and incubated for 2 hours. For competition experiments with the dimeric complex, 500 nM his-Gas41(13-158) and 250 nM avi-Gas41-YEATS were incubated in assay buffer with 250 nM dimeric inhibitor for 30 minutes before the addition of monomeric competitor. AlphaScreen beads were added as in previous experiments. Alpha signal was measured on a Pherastar plate reader.
as §1

[4] = AlphaScreen assay, bin Less than 500 nM, read-out: GAS41 YEATS inhibitor IC50

SMILES	IC50 [1, 4]	also measured
O=C(Nc1ccc(C(=O)N2CC(c3nccs3)C2)s1)[C@@H]1C[C@@H](OCCCCCCCCO[C@H]2CN[C@H](C(=O)Nc3ccc(C(=O)N4CC(c5nccs5)C4)s3)C2)CN1 [Compound 220]	< 500 nM	
O=C(Nc1ccc(C(=O)N2CC(c3nc4ccccc4s3)C2)s1)[C@@H]1C[C@@H](OCCCCCCO[C@H]2CN[C@H](C(=O)Nc3ccc(C(=O)N4CC(c5nc6ccccc6s5)C4)s3)C2)CN1 [Compound 218]	< 500 nM	
O=C(Nc1ccc(C(=O)N2CC(c3nc4ccccc4s3)C2)s1)[C@@H]1C[C@@H](OCCCCCCCCO[C@H]2CN[C@H](C(=O)Nc3ccc(C(=O)N4CC(c5nc6ccccc6s5)C4)s3)C2)CN1 [Compound 219]	< 500 nM	
O=C(Nc1ccc(C(=O)N2CC(c3nccs3)C2)s1)[C@@H]1CCCN1 [Compound 85, (S)—N-(5-(3-(thiazol-2-yl)azetidine-1-carbonyl)thiophen-2-yl)pyrrolidine-2-carboxamide]		broadening of NMR signals (formation of a larger dimeric complex) [2]: not monomeric Compound 85
CC(C)(C)c1ccc(C(=O)N2CCCC2)s1 [Compound 134, (5-(tert-butyl)thiophen-2-yl)(pyrrolidin-1-yl)methanone]		IC50 ([1]; AlphaScreen, 100 nM MOCR-his6-Gas41, 25 nM H3K23crK27cr-biotin, read-out: IC50): 73000 nM
O=C(Nc1ccc(C(=O)N2CC(c3nc4ccccc4s3)C2)s1)[C@@H]1C[C@@H](OCCCCO[C@H]2CN[C@H](C(=O)Nc3ccc(C(=O)N4CC(c5nc6ccccc6s5)C4)s3)C2)CN1 [Compound 221]	< 500 nM	IC50 [3]: 6000 nM; GI50 (H1299 cells; NCI-H1299, 96 h, H1299 cells treated for 4 days): ~3000 nM; GI50 (H1299 cells; NCI-H1299, 336 h, H1299 cells, day 14): ~6000 nM; inhibition at 12 µM (A549 cells): ~40%; effect on growth (A549 GAS41-KO cells): no effect; GI50 (H1933 cells): ~6000 nM
CN(C(=O)C1C[C@@H](OCCCCCCO[C@H]2CN[C@H](C(=O)N(C)c3ccc(C(=O)N4CC(c5nccs5)C4)s3)C2)CN1)c1ccc(C(=O)N2CC(c3nccs3)C2)s1 (stereo partly shown) [Compound 217]	< 500 nM	
O=C(Nc1ccc(C(=O)N2CC(c3nc4ccccc4s3)C2)s1)[C@@H]1CCCN1 [Compound 88]		dose dependent growth inhibition (H1299 cells; H1299 cells treated for 4 days): Only the dimer Compound 221 induces dose dependent growth inhibition
O=C(Nc1ccc(C(=O)N2CC(c3nccs3)C2)s1)[C@@H]1C[C@@H](OCCCCCCO[C@H]2CN[C@H](C(=O)Nc3ccc(C(=O)N4CC(c5nccs5)C4)s3)C2)CN1 [Compound 223, (2S,2′S,4R,4′R)-4,4′-(hexane-1,6-diylbis(oxy))bis(N-(5-(3-(thiazol-2-yl)azetidine-1-carbonyl)thiophen-2-yl)pyrrolidine-2-carboxamide)]	< 500 nM	luminescence signal reflecting formation of the dimeric complex (GAS41 YEATS domain): increase of luminescence signal; broadening of NMR signals (formation of a larger dimeric complex) [2]: induces very substantial broadening of signals

Continued, in another order:

IC50 [1, 4]	SMILES	also measured
< 500 nM	O=C(Nc1ccc(C(=O)N2CC(c3nccs3)C2)s1)[C@@H]1C[C@@H](OCc2ccc(CO[C@H]3CN[C@H](C(=O)Nc4ccc(C(=O)N5CC(c6nccs6)C5)s4)C3)cc2)CN1 [Compound 222]	
< 500 nM	O=C(Nc1ccc(C(=O)N2CC(c3ncc(-c4cccc(CNCc5cccc(-c6cnc(C7CN(C(=O)c8ccc(NC(=O)[C@@H]9CCCN9)s8)C7)s6)c5)c4)s3)C2)s1)C1CCCN1 (stereo partly shown) [Compound 211]	
< 500 nM	CC(=O)NCCCCCCN(Cc1cccc(-c2cnc(C3CN(C(=O)c4ccc(NC(=O)C5CCCN5)s4)C3)s2)c1)Cc1cccc(-c2cnc(C3CN(C(=O)c4ccc(NC(=O)[C@@H]5CCCN5)s4)C3)s2)c1 (stereo partly shown) [Compound 213]	
< 500 nM	O=C(Nc1ccc(C(=O)N2CC(c3ncc(-c4cccc(COCc5cccc(-c6cnc(C7CN(C(=O)c8ccc(NC(=O)[C@@H]9CCCN9)s8)C7)s6)c5)c4)s3)C2)s1)C1CCCN1 (stereo partly shown) [Compound 210]	
< 500 nM	CN(Cc1cccc(-c2cnc(C3CN(C(=O)c4ccc(NC(=O)C5CCCN5)s4)C3)s2)c1)Cc1cccc(-c2cnc(C3CN(C(=O)c4ccc(NC(=O)[C@@H]5CCCN5)s4)C3)s2)c1 (stereo partly shown) [Compound 212]	
